Converted amounts (≈) assume the structure as drawn. Blank lines part the entries; values can stand above or below the molecule they belong to.
Assays:
[1] = test system: Candida albicans TIMM 1623; assay: Antifungal activity test (in vivo), mouse systemic infection model; conditions: for T/C (%): survival time of administration group / control group x100
Experimental: With respect to compounds I-1, I-3 and I-6 obtained in Examples 1, 3 and 6 respectively, therapeutic effects at the time of subcutaneous administration of compounds I-1, I-3 and I-6 on a mouse systemic infection model by Candida albicans TIMM 1623 were tested.
The test was carried out using 5 animals for each of the drug administration groups and Negative control group (sterile physiological saline administration group).
Each of compounds I-1, I-3 and I-6 was dissolved in and diluted with dimethyl sulfoxide (DMSO; Wako Pure Chemical Industries, Ltd.) and then prepared into a predetermined concentration by diluting with sterile physiological saline.
As the control experiment, Fluconazole (FLCZ, Flanos intravenous drip solution 100 mg; TOYAMA CHEMICAL CO, LTD.) diluted to a predetermined concentration with sterile physiological saline was used.
On the next day of the receipt of animals, body weights of mice were measured and CP (crude protein) was intraperitoneally administered at a dose of 200 mg/kg based on the individual body weight, and then they were reared for 3 days.
Cells of C. albicans TIMM 1623 cultured overnight at 35° C. on SDA (Sabouraud dextrose agar; Eiken Chemical Co., Ltd.) plate medium were suspended in sterile physiological saline and used as the Stock solution, and a portion thereof was diluted with 10% formalin (Wako Pure Chemical Industries, Ltd.). The number of cells in the diluted liquid was counted under a biological microscope using a hemocytometer, and then an inoculum was prepared by diluting the stock solution with sterile physiological saline (about 1.5×10^5 cells/ml). By inoculating 0.2 ml of this cell suspension through caudal vein, infection was induced. In this connection, the number of viable cells in the inoculum was verified by spreading the cell suspension optionally diluted with sterile physiological saline on an SDA plate medium and then culturing at 35° C. Each of the substances to be tested, control substance or sterile physiological saline was subcutaneously administered after 2 hours of the infection and for 3 days starting on the next day of infection once a day, a total of 4 times. After measuring individual body weight on the next day of infection, CP was again administered intraperitoneally at a dose of 100 mg/kg. The number of survived mice was observed and recorded for 14 days starting on the next day of infection.
The results were shown in Table 3 below and FIGS. 1A to 1D. In the table, the administration dose of the compounds of the present invention and the comparative compound represents a mg amount per 1 kg of a mouse weight (mg/kg).
Significant deference was tested, by 5% for both sides of the levels of significance, in accordance with the Kaplan-Meier method Logrank test (comparison of multiple groups), on the survival time distribution of each of the substances to be tested and control substance administration groups and sterile physiological saline administration group. SAS release 8.2 (SAS Institute Japan) was used in the Kaplan-Meier method Logrank test. (T/C(%)=[survival time of administration group (integrated value)/survival time of control group (integrated value)]×100)

[2] = test system: Trichophyton mentagrophytes ATCC 9533; assay: Antifungal activity test (in vitro), MIC; format: cell-based; conditions: ATCC9533
Experimental: (§1) Minimum inhibitory concentration (MIC) of each of the compounds obtained in Examples 1 to 12 was measured for respective fungi at MOS Pharm Service, by the methods described in Antimicrobial Agents and Chemotherapy, vol. 3, pp. 40-48 (1973), Antimicrobial Agents and Chemotherapy, vol. 33, pp. 215-222 (1989) and Antimicrobial Agents and Chemotherapy, vol. 38, pp. 2362-2368 (1994). The measuring conditions are shown in the following. In this case, Voriconazol was used as a comparative compound. Trichophyton mentagrophytes ATCC 9533; Cultured at 28° C. for 3 days using fluid Sabouraud medium, and this was used as a cell suspension. Each of the compounds of the invention was adjusted to a concentration of 1% by weight using dimethyl sulfoxide (DMSO) and a medium similar to the respective medium used in the above-mentioned fungal culture, having a final concentration of from 0.001 to 100 μg/ml, was prepared. Each of the inoculation cell suspensions prepared by the above-mentioned methods was inoculated onto this agar plate. […] In this connection, Voriconazol was used as the comparative compound C-1.

[3] = test system: Candida albicans ATCC 10231; assay: Antifungal activity test (in vitro), MIC; format: cell-based; conditions: ATCC10231
Experimental: as §1, with “Candida albicans” for “Trichophyton mentagrophytes”, “10231 and ATCC 44858;” for “9533;”, “37°” for “28°”, “20 hours” for “3 days”

[4] = test system: Cryptococcus neoformans ATCC 24067; assay: Antifungal activity test (in vitro), MIC; format: cell-based; conditions: ATCC24067
Experimental: as §1, with “Cryptococcus neoformans” for “Trichophyton mentagrophytes”, “24067, Pityrosporum ovale ATCC 38593;” for “9533;”, “37°” for “28°”, “2 day” for “3 days”

[5] = test system: Pityrosporum ovale ATCC 38593; assay: Antifungal activity test (in vitro), MIC; format: cell-based; conditions: Malassezia furfur, ATCC38593
Experimental: as §1, with “Cryptococcus neoformans” for “Trichophyton mentagrophytes”, “24067, Pityrosporum ovale ATCC 38593;” for “9533;”, “37°” for “28°”, “2 day” for “3 days”

[6] = test system: Microsporum canis ATCC 36299; assay: Antifungal activity test (in vitro), MIC; format: cell-based; conditions: ATCC36299
Experimental: as §1, with “compound. Microsporum canis” for “compound. Trichophyton mentagrophytes”, “ATCC 36299;” for “ATCC 9533;”, “at 30°” for “at 28°”, “for 2” for “for 3”

[7] = test system: Aspergillus fumigatus ATCC 1028; assay: Antifungal activity test (in vitro), MIC; format: cell-based; conditions: ATCC1028
Experimental: Minimum inhibitory concentration (MIC) of each of the compounds obtained in Examples 1 to 12 was measured for respective fungi at MOS Pharm Service, by the methods described in Antimicrobial Agents and Chemotherapy, vol. 3, pp. 40-48 (1973), Antimicrobial Agents and Chemotherapy, vol. 33, pp. 215-222 (1989) and Antimicrobial Agents and Chemotherapy, vol. 38, pp. 2362-2368 (1994). The measuring conditions are shown in the following. In this case, Voriconazol was used as a comparative compound.
Aspergillus fumigatus ATCC 1028; Cultured at 28° C. for 2 days using potato dextrose broth, and this was used as a cell suspension.
Each of the compounds of the invention was adjusted to a concentration of 1% by weight using dimethyl sulfoxide (DMSO) and a medium similar to the respective medium used in the above-mentioned fungal culture, having a final concentration of from 0.001 to 100 μg/ml, was prepared. Each of the inoculation cell suspensions prepared by the above-mentioned methods was inoculated onto this agar plate. […] In this connection, Voriconazol was used as the comparative compound C-1.

Compound: OC(Cn1cncn1)(Cn1cncn1)c1ccc(F)cc1F [FLCZ, Fluconazole, reference compound]
survival rate ([1]; 0.1 mg/kg s.c., day 0): 100
survival rate ([1]; 0.1 mg/kg s.c., day 1): 100
survival rate ([1]; 0.1 mg/kg s.c., day 2): 100
survival rate ([1]; 0.1 mg/kg s.c., day 3): 60
survival rate ([1]; 0.1 mg/kg s.c., day 4): 60
survival rate ([1]; 0.1 mg/kg s.c., day 5): 60
survival rate ([1]; 0.1 mg/kg s.c., day 6): 60
survival rate ([1]; 0.1 mg/kg s.c., day 7): 40
survival rate ([1]; 0.1 mg/kg s.c., day 8): 40
survival rate ([1]; 0.1 mg/kg s.c., day 9): 20
survival rate ([1]; 0.1 mg/kg s.c., day 10): 20
survival rate ([1]; 0.1 mg/kg s.c., day 11): 20
survival rate ([1]; 0.1 mg/kg s.c., day 12): 20
survival rate ([1]; 0.1 mg/kg s.c., day 13): 20
survival rate ([1]; 0.1 mg/kg s.c., day 14): 20
T/C (%) ([1]; 0.1 mg/kg s.c.): 119%
survival rate ([1]; 0.3 mg/kg s.c., day 0): 100
survival rate ([1]; 0.3 mg/kg s.c., day 1): 100
survival rate ([1]; 0.3 mg/kg s.c., day 2): 100
survival rate ([1]; 0.3 mg/kg s.c., day 3): 100
survival rate ([1]; 0.3 mg/kg s.c., day 4): 100
survival rate ([1]; 0.3 mg/kg s.c., day 5): 100
survival rate ([1]; 0.3 mg/kg s.c., day 6): 100
survival rate ([1]; 0.3 mg/kg s.c., day 7): 80
survival rate ([1]; 0.3 mg/kg s.c., day 8): 80
survival rate ([1]; 0.3 mg/kg s.c., day 9): 80
survival rate ([1]; 0.3 mg/kg s.c., day 10): 80
survival rate ([1]; 0.3 mg/kg s.c., day 11): 80
survival rate ([1]; 0.3 mg/kg s.c., day 12): 80
survival rate ([1]; 0.3 mg/kg s.c., day 13): 80
survival rate ([1]; 0.3 mg/kg s.c., day 14): 80
T/C (%) ([1]; 0.3 mg/kg s.c.): 216%
survival rate ([1]; 1 mg/kg s.c., day 0): 100
survival rate ([1]; 1 mg/kg s.c., day 1): 100
survival rate ([1]; 1 mg/kg s.c., day 2): 100
survival rate ([1]; 1 mg/kg s.c., day 3): 100
survival rate ([1]; 1 mg/kg s.c., day 4): 100
survival rate ([1]; 1 mg/kg s.c., day 5): 100
survival rate ([1]; 1 mg/kg s.c., day 6): 100
survival rate ([1]; 1 mg/kg s.c., day 7): 100
survival rate ([1]; 1 mg/kg s.c., day 8): 100
survival rate ([1]; 1 mg/kg s.c., day 9): 100
survival rate ([1]; 1 mg/kg s.c., day 10): 100
survival rate ([1]; 1 mg/kg s.c., day 11): 100
survival rate ([1]; 1 mg/kg s.c., day 12): 100
survival rate ([1]; 1 mg/kg s.c., day 13): 80
survival rate ([1]; 1 mg/kg s.c., day 14): 80
T/C (%) ([1]; 1 mg/kg s.c.): 235%

MIC [2]: 10 µg/mL (≈ 22.8 µM)
MIC [3]: 100 µg/mL (≈ 228 µM)
MIC [4]: 0.3 µg/mL (≈ 0.683 µM)
MIC [5]: 0.1 µg/mL (≈ 0.228 µM)
MIC [6]: 10 µg/mL (≈ 22.8 µM)
MIC [7]: 100 µg/mL (≈ 228 µM)
Compound: Cc1ccc(C2=CCCN([C@H](C)[C@](O)(Cn3cncn3)c3ccc(F)cc3F)C2)nc1C [I-11, (2R,3R)-2-(2,4-difluorophenyl)-3-(5,6-dimethyl-5′,6′-dihydro-2,3′-bipyridin-1′(2′H)-yl)-1-(1,2,4-triazol-1-yl)butan-2-ol]

MIC [2]: 30 µg/mL (≈ 70.9 µM)
MIC [3]: 0.1 µg/mL (≈ 0.236 µM)
MIC [4]: 0.3 µg/mL (≈ 0.709 µM)
MIC [5]: 1 µg/mL (≈ 2.36 µM)
MIC [6]: 10 µg/mL (≈ 23.6 µM)
MIC [7]: 100 µg/mL (≈ 236 µM)
Compound: C[C@@H](n1ccc(-c2ccccn2)cc1=O)[C@](O)(Cn1cncn1)c1ccc(F)cc1F [I-8, 1′-[(1R,2R)-2-(2,4-difluorophenyl)-2-hydroxy-1-methyl-3-(1,2,4-triazol-1-yl)propyl]-2,4′-bipyridin-2′-one]

Source: patent publication US7973056B2, “Triazole derivative or salt thereof” (Fujifilm Finechemicals Co., Ltd, priority 2008, dated 2011)
